The test system of assay [1] is rice. Nature of the assay: Field test of foliar barriers: content of cadmium in rice. In kind it is in vivo, rice variety Huang-Li-Zhan. As to conditions: for content of cadmium in rice decreased by, compared with the control (CK) / content of cadmium in rice: sprayed once at tillering stage at 100 L/mu (T1, T4, T5); for content of cadmium in rice: control 0.308 mg/kg. An excerpt: (§1) The surface soil (0-30 cm) of a rice field polluted by heavy metals located in Boluo Town, Huizhou City, Guangdong Province was collected and analyzed from April to July of 2016. […] The tested rice variety was Huang-Li-Zhan.
(§2) There were the following six treatments in the experiment: (1) Blank control (CK): An equal amount of clear water was sprayed. (2) Treatment 1 (T1): The silica sol foliar barrier (prepared in Example 3) was sprayed once on the leaves at the tillering stage of rice when the foliar barrier was diluted 50 times and sprayed at 100 L/mu. (3) Treatment 2 (T2): The selenium sol foliar barrier (prepared in Example 3) was sprayed twice on the leaves, the first at the tillering stage of rice when the foliar barrier was diluted 100 times and sprayed at 50 L/mu, the second at the heading stage of rice when the foliar barrier was diluted 100 times and sprayed at 150 L/mu. (4) Treatment 3 (T3): The selenium sol foliar barrier (prepared in Example 3) was sprayed three times on the leaves, the first at the tillering stage of rice when the foliar barrier was diluted 100 times and sprayed at 80 L/mu, the second at the heading stage of rice when the foliar barrier was diluted 100 times and sprayed at 120 L/mu, the third at the filling stage of rice when the foliar barrier was diluted 250 times and sprayed at 150 L/mu. (5) Treatment 4 (T4): The ferrous sulfate solution containing the iron element at a mass-volume ratio of 0.1% was sprayed on the leaves at the tillering stage of rice at 100 L/mu. (6) Treatment 5 (T5): The sodium selenite solution containing the selenium element at a mass-volume ratio of 0.05% was sprayed on the leaves at the tillering stage of rice at 100 L/mu.
(§3) It was selected that the above foliar preparations were sprayed at 4-6 pm on a sunny day; when sprayed, the atomized droplets were controlled to be smaller than 1000 microns, and sprayed uniformly on both sides of the rice leaves. Each treatment was repeated four times, randomly arranged. There were totally 36 test plots, each plot having an area of 5×6=30 m^2 to ensure independent drainage and irrigation.

The subject of the next assay is OsLCT1. Nature of the assay: Expression level of OsLCT1 in rice suspension cells, real-time fluorescence quantitative PCR. In kind it is cell-based, Oryza sativa L. Japonica. As to conditions: 24 h with treatment, then 10 μM cadmium and 5 μM arsenic for 24 h, CK 4.62 ± 0.10. Here is the method: (§4) Method of culturing rice suspension cells (Oryza sativa L. Japonica): Selecting mature and plump seeds of Japanese rice Nipponbare, and disinfecting them with 70% alcohol by volume or 30% sodium hypochlorite by mass; evenly sowing the seeds with tweezers onto a plate containing a solid medium, and then placing the plate into an incubator to culture in the dark at a culture temperature of 25° C.; after a period of time, removing hypocotyls from the seeds with tweezers, and culturing the hypocotyls in another solid medium to obtain callus; crushing 10 g of the callus, adding it to a triangular flask containing a liquid medium (50 mL), and culturing in a shaker at 28° C. for about one month to obtain rice suspension cells.
(§5) The basic components of the above solid medium and liquid medium are consistent, both being an MS medium. The solid medium was prepared by adding agar to the liquid medium (adding […] of the liquid medium, and then heating, melting, cooling and solidifying to obtain the solid medium). The basic formula was as follows: […]
(§6) In order to study the effect of the ferrous modified selenium sol on the expression level of the cadmium transporter in rice suspension cells, the following treatments were performed on the rice suspension cells: […]

Another assay relates to OsLsi2. Nature of the assay: Expression level of OsLsi2 in rice suspension cells, real-time fluorescence quantitative PCR. In kind it is cell-based, Oryza sativa L. Japonica. As to conditions: 24 h with treatment, then 10 μM cadmium and 5 μM arsenic for 24 h, CK 4.91 ± 0.21. Here is the method:
as §4, §5, §6

The test system of another assay is OsHMA3. Nature of the assay: Expression level of OsHMA3 in rice suspension cells, real-time fluorescence quantitative PCR. It counts as cell-based, Oryza sativa L. Japonica. As to conditions: 24 h with treatment, then 10 μM cadmium and 5 μM arsenic for 24 h, CK 1.47 ± 0.07. On the procedure:
as §4, §5, §6

The subject of a further assay is OsNramp5. The assay can be described thus: Expression level of OsNramp5 in rice suspension cells, real-time fluorescence quantitative PCR. As to conditions: 24 h with treatment, then 10 μM cadmium and 5 μM arsenic for 24 h, CK 4.84 ± 0.15. It counts as cell-based, Oryza sativa L. Japonica. On the procedure:
as §4, §5, §6

Assay [2] has as its system rice suspension cells. Nature of the assay: Content of cadmium in rice suspension cells. In kind it is cell-based, Oryza sativa L. Japonica. As to conditions: for Cd Content: 10 μM cadmium and 5 μM arsenic for 24 h, CK 12.8 ± 0.9; for Cd reduction ratio (inhibition rate of cadmium): compared with the blank control. Here is the method: as §4, §5
(§7) Ferrous sulfate, sodium selenite and the ferrous modified selenium sol prepared in Examples 1, 2 and 3 were added to a rice suspension cell system, respectively, so that in the final system the ferrous sulfate solution containing the iron element at a mass-volume ratio of 0.05% (T1), the sodium selenite solution containing the selenium element at a mass-volume ratio of 0.025% (T2), and the ferrous modified selenium sol prepared in Example 1 (T3) were diluted 50 times, the ferrous modified selenium sol prepared in Example 2 was diluted 150 times (T4), and the ferrous modified selenium sol prepared in Example 3 was diluted 100 times (T5). The rice suspension cells without any treatment were used as a control (CK). After 24 h of culture, cadmium and arsenic were added to the culture system, so that the final concentrations of cadmium and arsenic were 10 μM and 5 μM, respectively. With the temperature kept constant at 28° C. in a shaker, the rice cells of each treatment were continuously cultured for 24 h and then collected. RNA was extracted from the rice cells and reversely transcribed, and the expression levels of the genes OsNramp5, OsHMA3, OsLCT1, OsLsi1 and OsLsi2 were detected.
(§8) The rice cells obtained by the above respective treatments were collected and washed centrifugally with ultrapure water, and then the contents of cadmium and arsenic in the cells were measured.

Assay [3] has as its system rice. The assay can be described thus: Field test of foliar barriers: content of inorganic arsenic in rice. As to conditions: sprayed once at tillering stage at 100 L/mu (T1, T4, T5); for content of inorganic arsenic in rice: control 0.280 mg/kg. In kind it is in vivo, rice variety Huang-Li-Zhan.
From the text: as §1, §2, §3

For the next assay, the system named is OsLsi1. Nature of the assay: Expression level of OsLsi1 in rice suspension cells, real-time fluorescence quantitative PCR. It counts as cell-based, Oryza sativa L. Japonica. As to conditions: 24 h with treatment, then 10 μM cadmium and 5 μM arsenic for 24 h, CK 4.74 ± 0.11. On the procedure:
as §4, §5, §6

The subject of assay [4] is rice. It counts as in vivo, rice variety Huang-Li-Zhan.
From the text: as §1, §2, §3

Assay [5] has as its system rice suspension cells. Nature of the assay: Content of arsenic in rice suspension cells. It counts as cell-based, Oryza sativa L. Japonica. As to conditions: for As content: 10 μM cadmium and 5 μM arsenic for 24 h, CK 7.12 ± 0.82; for As reduction ratio (inhibition rate of arsenic): compared with the blank control. Here is the method:
as §4, §5, §7, §8

Read-outs that look alike come from different tables or passages of the source.

Regarding `O=[Se](O)O` [sodium selenite], in the assay on rice [1], the “content of cadmium in rice decreased by, compared with the control (CK)” value came out at 10.1% and the “content of cadmium in rice” value was found to be 0.276 mg/kg. Also, the OsLCT1 expression with OsLCT1 stood at 4.42 ± 0.14. The OsLsi2 expression in the assay with OsLsi2 came out at 3.07 ± 0.11. Further, the OsHMA3 expression in the assay with OsHMA3 was found to be 2.15 ± 0.14. This molecule also yielded an OsNramp5 expression in the assay with OsNramp5 of 3.85 ± 0.21. In the assay with rice suspension cells [2], the “Cd Content” value stood at 9.1 ± 1.2 µg/g and the “Cd reduction ratio (inhibition rate of cadmium)” value stood at 28.9%. In the assay on rice [3], the “content of inorganic arsenic in rice decreased by, compared with the control (CK)” value was 16.8% and the “content of inorganic arsenic in rice” value came to 0.232 mg/kg. The molecule further registered an OsLsi1 expression with OsLsi1 of 3.11 ± 0.17. For the same molecule, the “yield of rice decreased by” value with rice [4] (field, T5: sprayed once at tillering stage at 100 L/mu, 0.05% Se, compared with CK) was determined as 3.8%. Moreover, the Plot average yield in the assay on rice [4] (field, sprayed once at tillering stage at 100 L/mu (T1, T4, T5), CK 28.05) worked out at 26.95c kg. Also, the “Dry production per mu” value in the assay on rice [4] (field, sprayed once at tillering stage at 100 L/mu (T1, T4, T5), CK 386) was 371 kg. In addition, in the assay with rice [4] (field, sprayed once at tillering stage at 100 L/mu (T1, T4, T5), CK 623), the “Wet production per mu” value stood at 599 kg. Further, in the assay with rice [4] (field, sprayed once at tillering stage at 100 L/mu (T1, T4, T5), compared with CK), the Yield increase ratio is −3.8%. Also, the “Plot yield II” value in the assay with rice [4] (field, sprayed once at tillering stage at 100 L/mu (T1, T4, T5), plot II, CK 30.15) is on record as 27.15 kg. In the assay with rice [4] (field, sprayed once at tillering stage at 100 L/mu (T1, T4, T5), plot III, CK 28.95), the “Plot yield III” value worked out at 29.12 kg. The “Plot yield IV” value in the assay on rice [4] (field, sprayed once at tillering stage at 100 L/mu (T1, T4, T5), plot IV, CK 24.3) is recorded as 26.13 kg. Moreover, in the assay on rice [4] (field, sprayed once on leaves at tillering stage at 100 L/mu (T1: sol diluted 50 times; T4: ferrous sulfate 0.1% Fe; T5: sodium selenite 0.05% Se), plot I, 30 m^2, CK 28.65), the “Plot yield I” value was found to be 25.41 kg. Also, in the assay on rice suspension cells [5], the As content turned out to be 4.96 ± 0.53 µg/g and the “As reduction ratio (inhibition rate of arsenic)” value is recorded as 30.3%.
As for `O=S(=O)([O-])[O-].[Fe+2]` [ferrous sulfate], in the assay on rice [1] (sol in regimens T1, T2 and T3, ferrous sulfate T4, sodium selenite T5), the “cadmium and inorganic arsenic content of the treated rice against the food hygiene standard” value is recorded as “still exceeded the food hygiene standard”. In the assay on rice [1], the “content of cadmium in rice decreased by, compared with the control (CK)” value stood at 18.8% and the “content of cadmium in rice” value is given as 0.250 mg/kg. In the assay on OsLCT1, this molecule gave an OsLCT1 expression of 3.82 ± 0.11. In the assay with OsLsi2, the OsLsi2 expression turned out to be 4.78 ± 0.27. In addition, the OsHMA3 expression in the assay on OsHMA3 was determined as 2.53 ± 0.12. Moreover, the OsNramp5 expression in the assay with OsNramp5 turned out to be 3.15 ± 0.16. For the same molecule, in the assay with rice suspension cells [2], the “Cd Content” value is 8.3 ± 0.6 µg/g and the “Cd reduction ratio (inhibition rate of cadmium)” value was 35.2%. Also, in the assay on rice [3], the “content of inorganic arsenic in rice decreased by, compared with the control (CK)” value stood at 18.7% and the “content of inorganic arsenic in rice” value is on record as 0.255 mg/kg. The molecule further showed an OsLsi1 expression in the assay on OsLsi1 of 4.15 ± 0.16. In the assay on rice [4] (in vivo), the “Dry production per mu” value is 410 kg, the Plot average yield amounted to 30.04abc kg, the “Plot yield I” value was found to be 29.4 kg and the “Plot yield II” value turned out to be 30.75 kg. Moreover, in the assay on rice [4] (in vivo), the “Plot yield III” value came to 30.3 kg, the “Wet production per mu” value was 668 kg and the Yield increase ratio is reported as 6.4%. The “Plot yield IV” value in the assay on rice [4] (in vivo, iv) is on record as 29.7 kg. In addition, in the assay with rice suspension cells [5], the As content was determined as 6.89 ± 0.71 µg/g and the “As reduction ratio (inhibition rate of arsenic)” value was found to be 3.2%.

(Values after patent US10899631B2, “Ferrous modified selenium sol for inhibiting accumulation of cadmium and arsenic in rice and preparation method and application thereof” (priority 2018, dated 2021).)
